{"source": "patent US20260055365A1", "about": "“METHOD FOR SELECTIVE DIFFERENTIATION FROM PLURIPOTENT STEM CELLS TO HINDBRAIN TISSUE” (NEXT&BIO INC., priority 2022, published 2026)", "tested_on": "embryoid bodies formed from pluripotent stem cells", "assay": "Selective differentiation of embryoid bodies into hindbrain tissue (region-specific gene expression)", "type": "cell-based", "conditions": "cultured 7 days", "protocol": "When the density of pluripotent stem cells reached approximately 80%, residues on the cell surface were washed using D-PBS and separated into each cell. Furthermore, the cells were diluted to contain approximately 100,000 cells per 10 ml of the embryoid body formation medium, and approximately 100 μl of the medium containing the cells was injected into each well of an Ultra-Low-attachment U bottom 96 well plate (Corning, 7007). Then, the cells were added in an incubator under a CO2 atmosphere at 37° C. and cultured for about 24 hours to form embryoid bodies. After the embryoid bodies were formed as described above, after about one day, it was confirmed whether one spherical embryoid body with a clean surface was formed well in each well. A hindbrain tissue induction medium containing IWP-2 as an endogenous WNT secretion inhibitor at a concentration of 1 μM and CHIR99021 as a WNT signaling agonist at concentrations of 1 μM, 2 μM, 3 μM, and 5 μM was prepared, and then about 100 μl of the hindbrain tissue induction medium was added to each well containing the embryoid body. About 100 μl of the existing medium was removed once every two days, about 100 μl of the hindbrain tissue induction medium was added, and the embryoid bodies were cultured for 7 days to confirm whether selective differentiation of the embryoid bodies into hindbrain tissue was performed well."}
{"smiles": "Cc1c[nH]c(-c2cnc(NCCNc3ccc(C#N)cn3)nc2-c2ccc(Cl)cc2Cl)n1", "note": "[CHIR99021]", "values": [{"measurement": "expression intensities of hindbrain region-specific genes versus other brain region-specific genes", "setting": "hindbrain tissue induction medium with CHIR99021 2 μM to 3 μM plus IWP-2 1 μM", "value": "much stronger than those of other brain region-specific genes"}, {"measurement": "expression of forebrain region-specific genes versus other brain regions", "setting": "hindbrain tissue induction medium with CHIR99021 approximately 1 μM plus IWP-2 1 μM", "value": "stronger than that of other brain regions"}, {"measurement": "expression of spinal cord region-specific genes versus other brain regions", "setting": "hindbrain tissue induction medium with CHIR99021 approximately 5 μM plus IWP-2 1 μM", "value": "stronger than that of other brain regions"}, {"measurement": "expression of hindbrain region-specific genes", "setting": "hindbrain tissue induction medium with CHIR99021 more than 1 μM and less than 5 μM plus IWP-2 1 μM, FIGS. 2 to 4", "value": "strongly induced"}]}
